In PMC11085077, “Designing Antitrypanosomal and Antileishmanial BODIPY Derivatives: A Computational and In Vitro Assessment” (Molecules, 2024):
Where “and” joins values, the source holds several entries; their conditions need not be identical. Equal values may be shown once.

What was measured:
Trypanosoma brucei = details: read-out: inhibitory concentration against T. brucei; cited from earlier work
Leishmania major = details: read-out: inhibitory concentration against L. major; cited from earlier work
T. brucei BSF = test: Antitrypanosomal activity, alamarBlue assay; assay type: cell-based, Trypanosoma brucei; details: for Selectivity Index (SI) T. brucei: SI = IC50 MRC-5/IC50 parasite; for IC50: bloodstream form, 72 h incubation, alamarBlue, error reported as σ
Description: The in vitro antitrypanosomal and antileishmanial activity of the BODIPY derivatives were evaluated on the bloodstream form (BSF) of T. brucei and the promastigote form of L. major parasites. The toxicity of the compounds was determined after 72 h of incubation using the alamarBlue assay (for T. brucei) and the MTT assay (for L. major). The cytotoxicity of the compounds on a healthy human cell line (human lung fibroblast, MRC-5) was also determined after 72 h of incubation using the alamarBlue assay. The data were expressed as the half maximal inhibitory concentration (IC50). The selectivity index (SI) of each derivative was calculated by dividing the IC50 of MRC-5 cells into the IC50 of T. brucei or L. major.
T. brucei (Lister 427, antigenic type MiTat 1.2, clone 221a, bloodstream forms, “single marker” S427 (S16)) were cultured at 37 °C, 5% CO2 in HMI-9 medium supplemented with 10% heat-inactivated fetal bovine serum (hiFBS, Invitrogen, Carlsbad, CA, USA), as previously described.
The antitrypanosomal activity of the BODIPY derivatives was determined by the alamarBlue® assay (ThermoFisher Scientific, Waltham, MA, USA). The stock solutions of the compounds were prepared in DMSO and the final DMSO percentage in each well was adjusted to be less than 1%. A total of 2 × 10^4 parasites per mL were incubated at 37 °C, 5% CO2 in 96-well plates (50 μL/well) alone or in the presence of an increasing concentration of compounds for 72 h. A total of 20 μL of resazurin solution (110 ng/mL) was then added to each well, and the parasites were incubated for 4 h at 37 °C. Finally, cells were lysed with 50 μL per well of SDS 3%. The plate was incubated at 37 °C for an extra hour and then, fluorescence intensity was measured with an Infinite F200 plate reader (Tecan Austria, GmbH, Grödig, Austria), exciting at 550 nm and recording the emission at 590 nm. The results are expressed as the concentration of a compound that reduces cell growth by 50% versus untreated control cells (IC50). Data are presented as the average of at least three independent measurements, all conducted in triplicate conditions.

L. major promastigotes = test: Antileishmanial activity, MTT-based assay; assay type: cell-based, Leishmania major; details: for IC50: promastigotes, 72 h incubation, MTT, error reported as σ; for Selectivity Index (SI) L. major: SI = IC50 MRC-5/IC50 parasite
Description: The in vitro antitrypanosomal and antileishmanial activity of the BODIPY derivatives were evaluated on the bloodstream form (BSF) of T. brucei and the promastigote form of L. major parasites. The toxicity of the compounds was determined after 72 h of incubation using the alamarBlue assay (for T. brucei) and the MTT assay (for L. major). The cytotoxicity of the compounds on a healthy human cell line (human lung fibroblast, MRC-5) was also determined after 72 h of incubation using the alamarBlue assay. The data were expressed as the half maximal inhibitory concentration (IC50). The selectivity index (SI) of each derivative was calculated by dividing the IC50 of MRC-5 cells into the IC50 of T. brucei or L. major. L. major (MHOM/IL/80/Friedlin) promastigotes were cultured at 28 °C, 5% CO2 in modified RPMI-1640 medium (Invitrogen, Carlsbad, CA, USA) supplemented with 10% hiFBS [49]. Parasites were maintained in culture in their […] growth phase (below 2 million parasites per mL for T. brucei and 10 million parasites per mL for L. major). The antileishmanial activity of the BODIPY derivatives was assessed using an MTT-based assay (Sigma-Aldrich, St. Louis, MO, USA). The stock solutions of the compounds were prepared in DMSO and the final DMSO percentage in each well was adjusted to be less than 1%. A total of 4 × 10^6 parasites per mL were incubated at 28 °C in 96-well plates (50 μL/well) alone or in the presence of an increasing concentration of compounds DMSO for 72 h. A total of 10 μL of MTT (5 mg/mL) were added to each well and parasites were incubated for 4 h at 28 °C. Finally, cells were lysed with 50 μL/well of 20% SDS. The plate was incubated at 37 °C for an extra hour and then, absorbance was measured at the Infinite F200 plate reader (TECAN Austria, GmbH, Grödig, Austria) at a wavelength of 540 nm. The IC50 was calculated as described above. Data are presented as the average of at least three independent measurements, all conducted in triplicate conditions.

[1] = test system: MRC-5 cell line (human lung fibroblast); test: Cytotoxicity, alamarBlue assay; assay type: cell-based; details: 72 h incubation, error reported as σ
Description: The in vitro antitrypanosomal and antileishmanial activity of the BODIPY derivatives were evaluated on the bloodstream form (BSF) of T. brucei and the promastigote form of L. major parasites. The toxicity of the compounds was determined after 72 h of incubation using the alamarBlue assay (for T. brucei) and the MTT assay (for L. major). The cytotoxicity of the compounds on a healthy human cell line (human lung fibroblast, MRC-5) was also determined after 72 h of incubation using the alamarBlue assay. The data were expressed as the half maximal inhibitory concentration (IC50). The selectivity index (SI) of each derivative was calculated by dividing the IC50 of MRC-5 cells into the IC50 of T. brucei or L. major. MRC-5 cell line (human lung fibroblast) was grown in a monolayer at 37 °C, 5% CO2 in DMEM medium (1 g/L glucose) supplemented with 10% hiFBS, 100 U/mL penicillin, […] and 2 mM L-glutamine. Cytotoxicity was measured in MRC-5 through alamarBlue® assay (ThermoFisher Scientific). The stock solutions of the compounds were prepared in DMSO and the final DMSO percentage in each well was adjusted to be less than 1%. A total of 5 × 10^3 cells per mL were seeded in 96-well plates (100 μL/well) with 24 h of incubation time before compound addition at 37 °C, 5% CO2. Then, the compounds were added at increasing concentrations (from 0 to 100 μM) and the plates were incubated for 72 h. A total of 20 μL of resazurin solution (110 ng/mL) was added to each well and cells were incubated for 4 h. Then, cells were lysed with 50 μL/well of 3% SDS. The plate was incubated at 37 °C for an extra hour and then, the fluorescence intensity was measured at the Infinite F200 plate reader (TECAN Austria, GmbH), exciting at 550 nm and recording the emission at 590 nm. The results are expressed as the concentration of a compound that reduces cell growth by 50% versus untreated control cells (IC50). Data are presented as the average of at least three independent measurements, all conducted in triplicate conditions.

[2] = Solubility in water (statement); assay type: physicochemical
[3] = classification used for docking analysis

Row | SMILES | IC50 (Trypanosoma brucei) | IC50 (Leishmania major) | Selectivity Index (SI) T. brucei (T. brucei BSF) | IC50 (T. brucei BSF; Trypanosoma brucei) | IC50 (L. major promastigotes; Leishmania major) | Selectivity Index (SI) L. major (L. major promastigotes) | IC50 ([1]; MRC5, healthy human lung fibroblasts) | solubility in water (in words) [2] | IC50 (T. brucei BSF) | antitrypanosomal activity (in words) (T. brucei BSF; [3]) | antileishmanial activity (in words) (L. major promastigotes; [3]) | IC50 (L. major promastigotes) | IC50 ([1]; healthy human lung fibroblasts)
1 | CN(Cc1cnc2nc(N)nc(N)c2n1)c1ccc(C(=O)N[C@@H](CCC(=O)O)C(=O)O)cc1 [methotrexate] | 2.7 µM | 3.6 µM |  |  |  |  |  |  |  |  |  |  | 
2 | CC1=C(I)C(C)=[N+]2C1=C(c1c3ccccc3cc3ccccc13)c1c(C)c(I)c(C)n1[B-]2(F)F [Compound 4c] |  |  | 1.72 | 28.1 ± 1.77 µM | > 50 µM | <0.96 | 48.2 ± 1.13 µM | low solubility in water |  |  |  |  | 
3 | CC1=C(C=O)C(C)=[N+]2C1=C(c1c3ccccc3cc3ccccc13)c1c(C)cc(C)n1[B-]2(F)F [Compound 2c] |  |  | 11 and 10.84 |  |  | 6.47 |  |  | 6.17 ± 2.35 µM | present antitrypanosomal activity | present antileishmanial activity | 10.3 ± 1.59 µM | 66.9 ± 7.65 µM
